Laboratory results as given in US9682969B2, “Phthalazinone compounds and methods for the treatment of cystic fibrosis” (FLATLEY DISCOVERY LAB, LLC, priority 2013, dated 2017).

Target: human F508del CFTR (Homo sapiens (Human), UniProt P13569, DEL508-508)
Test: CFTR-YFP High Throughput Assay (YFP flux assay, FRT cells)
Format: cell-based
Conditions: FRT cells expressing human F508del CFTR and YFP
Experimental: This protocol is designed to selectively screen small molecule compounds for F508del CFTR corrector activities in the YFP (yellow fluorescent protein) flux assay. In this protocol, the cells are incubated with testing compounds for 24 hours, washed with PBS, stimulated with forskolin and a standard potentiator, and fluorescence in each plate well is measured kinetically read on a 384-well plate reader, such as the Hamamatsu FDSS-6000.
YFP fluorescence intensity values are acquired at high speed before and after iodide buffer is injected to the assay cells. Iodide enters the cells via active CFTR channels in the plasma membrane, and quenches the YFP fluorescence. The rate of fluorescence quenching is proportionate to the total CFTR activity in the cell membrane. F508del CFTR correctors increase the number of CFTR molecules in the testing cell plasma membrane, and thereby accelerate YFP quenching.
This method was initially developed for bench top plate readers (Galietta, J, Jayaraman, S and Verkman, A S. Cell-based assay for high-throughput quantitative screening of CFTR chloride transport agonists. Am. J. Physiol. Cell Physiol. (2001), 281: C173), and was adapted to the HTS format (Sui J, Cotard S, Andersen J, Zhu P, Staunton J, Lee M, Lin S. Optimization of a Yellow fluorescent protein-based iodide influx high-throughput screening assay for cystic fibrosis transmembrane conductance regulator (CFTR) modulators. Assay Drug Dev Technol. (2010), 8: 656-668).
Fisher Rat Thyroid (FRT) cells stably expressing both human F508del CFTR and a halide-sensitive yellow fluorescent protein (YFP-H148Q/I152L 25,22) (Galietta et al. Am. J. Physiol Cell Physiol 281(5), C1734, 2001) were cultured on plastic surface in Coon's modified Ham's F12 medium supplemented with FBS 10%, L-glutamine 2 mM, penicillin 100 U/ml, and streptomycin […]. G418 (0.75-1.0 mg/ml) and zeocin (3.2 ug/ml) were used for selection of FRT cells expressing F508del CFTR and YFP. For primary screening, FRT cells were plated into 384-well black wall, transparent bottom microtiter plates (Costar; Corning Inc.) at a cell density of 20,000-40,000 per well. Test compound was applied to the cells at varying concentrations ranging from 2 nM-40 μM in either a 2-fold or 3-fold dilution series. Cells were incubated in a cell culture incubator at 37° C. with 5% CO2 for 24-26 h. Assay plates were washed with DPBS media (Thermo, cat# SH30028.02) to remove unbound cells and compound. Stimulation media (25 μL) containing 20 μM Forskolin & 30 μM P3 [6-(Ethyl-phenyl-sulfonyl)-4-oxo-1,4-dihydro-quinoline-3-carboxylic acid 2-methoxy-benzylamide] in Hams F-12 coon's modified media was added to the plate wells and incubated at room temperature for 60-120 min. 25 μL of HEPES-PBS-I buffer (10 mM HEPES, 1 mM MgCl2, 3 mM KCl, 1 mM CaCl2, 150 mM NaI) was then added and fluorescence quench curves (Excitation 500 nm/Emission 540 nm; exposure 136 ms) were immediately recorded on an FDSS-6000 plate reader (Hamamatsu). Quench rates were derived from least squares fitting of the data as described by Sui et al (2010).
This protocol is designed to selectively screen small molecule compounds for F508del CFTR potentiator activities in the YFP (yellow fluorescent protein) flux assay. Such compounds act acutely to stimulate CFTR already expressed on the membrane surface. In this protocol, the cells are incubated at 27° C. for 24 hours to homogeneously boost F508del CFTR expression in the cell membrane (low temperature correction), washed with PBS, treated with test compound, and CFTR activity is stimulated with forskolin for 1-2 hr. Measurement of ion flux is initiated by addition of iodide-containing buffer, and YFP quenching is kinetically recorded using a 384-well plate reader, such as the Hamamatsu FDSS-6000.
YFP fluorescence intensity values are acquired at high speed over a 1 min time course before and after iodide buffer is injected to the assay cells. […]

human F508del CFTR, sequence (P13569 other isoform, or with tags, fused parts or gaps del F508-F508): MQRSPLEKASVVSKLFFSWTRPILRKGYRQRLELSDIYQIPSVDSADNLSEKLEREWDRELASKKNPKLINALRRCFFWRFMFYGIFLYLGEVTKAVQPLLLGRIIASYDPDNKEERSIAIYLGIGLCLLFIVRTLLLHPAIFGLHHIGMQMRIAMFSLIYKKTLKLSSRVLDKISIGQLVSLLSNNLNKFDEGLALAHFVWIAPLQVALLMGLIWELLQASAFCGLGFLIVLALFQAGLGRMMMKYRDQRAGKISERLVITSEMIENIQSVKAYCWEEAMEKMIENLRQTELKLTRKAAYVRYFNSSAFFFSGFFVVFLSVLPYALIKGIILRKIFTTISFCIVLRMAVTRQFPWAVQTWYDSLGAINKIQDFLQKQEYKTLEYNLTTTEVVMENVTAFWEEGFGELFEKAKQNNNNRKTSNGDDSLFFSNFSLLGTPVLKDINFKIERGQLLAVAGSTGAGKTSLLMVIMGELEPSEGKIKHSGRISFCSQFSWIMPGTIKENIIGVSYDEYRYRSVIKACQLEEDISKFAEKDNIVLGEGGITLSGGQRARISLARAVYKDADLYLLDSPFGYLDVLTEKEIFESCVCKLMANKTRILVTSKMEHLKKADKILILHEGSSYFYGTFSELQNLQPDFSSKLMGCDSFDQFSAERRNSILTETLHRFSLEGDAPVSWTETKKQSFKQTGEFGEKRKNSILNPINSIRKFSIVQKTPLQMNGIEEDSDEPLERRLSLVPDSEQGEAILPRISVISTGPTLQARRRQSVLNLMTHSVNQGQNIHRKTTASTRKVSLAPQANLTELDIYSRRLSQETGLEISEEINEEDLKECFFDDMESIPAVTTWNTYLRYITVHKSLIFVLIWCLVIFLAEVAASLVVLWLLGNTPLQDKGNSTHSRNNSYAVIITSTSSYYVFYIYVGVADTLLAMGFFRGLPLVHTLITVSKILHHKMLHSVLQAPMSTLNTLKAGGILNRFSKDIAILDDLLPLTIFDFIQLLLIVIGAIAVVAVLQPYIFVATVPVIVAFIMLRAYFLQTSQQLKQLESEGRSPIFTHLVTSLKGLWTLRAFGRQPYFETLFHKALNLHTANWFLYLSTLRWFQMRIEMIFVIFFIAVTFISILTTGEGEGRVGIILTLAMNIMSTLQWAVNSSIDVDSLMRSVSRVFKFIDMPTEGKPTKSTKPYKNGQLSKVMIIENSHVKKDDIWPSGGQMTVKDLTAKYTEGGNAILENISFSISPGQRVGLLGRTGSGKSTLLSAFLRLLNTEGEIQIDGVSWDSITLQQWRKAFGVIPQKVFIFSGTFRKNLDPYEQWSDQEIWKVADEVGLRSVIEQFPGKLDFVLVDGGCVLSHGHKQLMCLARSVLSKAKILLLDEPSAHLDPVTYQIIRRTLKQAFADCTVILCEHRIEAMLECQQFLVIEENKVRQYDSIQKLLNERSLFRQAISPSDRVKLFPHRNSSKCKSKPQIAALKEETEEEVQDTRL

| Structure (SMILES) | EC50 |
| --- | --- |
| Cc1nc2ccc(N(C)C(=O)Cn3nc(-c4cccc(Cl)c4)c4ccccc4c3=O)cc2o1 [Example 1, 2-(4-(3-chlorophenyl)-1-oxophthalazin-2(1H)-yl)-N-methyl-N-(2-methylbenzo[d]oxazol-6-yl)acetamide] | < 10 µM |
| Cc1nc2ccc(N(C)C(=O)Cn3nc(-c4cccc(F)c4)c4ccccc4c3=O)cc2o1 [Example 2, 2-(4-(3-fluorophenyl)-1-oxophthalazin-2(1H)-yl)-N-methyl-N-(2-methylbenzo[d]oxazol-6-yl)acetamide] | < 10 µM |
| COc1ccc2c(-c3cccc(F)c3)nn(CC(=O)N(C)c3ccc4nc(C)oc4c3)c(=O)c2c1 [Example 3, 2-(4-(3-fluorophenyl)-7-methoxy-1-oxophthalazin-2(1H)-yl)-N-methyl-N-(2-methylbenzo[d]oxazol-6-yl)acetamide] | < 10 µM |
| COc1ccc2c(-c3cccc(Cl)c3)nn(CC(=O)N(C)c3ccc4nc(C)oc4c3)c(=O)c2c1 [Example 4, 2-(4-(3-chlorophenyl)-7-methoxy-1-oxophthalazin-2(1H)-yl)-N-methyl-N-(2-methylbenzo[d]oxazol-6-yl)acetamide] | < 10 µM |
| COc1ccc2c(-c3cccc(Cl)c3)nn(CC(=O)N(c3ccc4nc(C)oc4c3)C3CC3)c(=O)c2c1 [Example 5, 2-(4-(3-chlorophenyl)-7-methoxy-1-oxophthalazin-2(1H)-yl)-N-cyclopropyl-N-(2-methylbenzo[d]oxazol-6-yl)acetamide] | < 10 µM |
| [2H]C([2H])([2H])N(C(=O)Cn1nc(-c2cccc(Cl)c2)c2ccc(OC)cc2c1=O)c1ccc2nc(C)oc2c1 [Example 6, 2-(4-(3-chlorophenyl)-7-methoxy-1-oxophthalazin-2(1H)-yl)-N-(methyl-d3)-N-(2-methylbenzo[d]oxazol-6-yl)acetamide] | < 10 µM |
| [2H]C([2H])(C)N(C(=O)Cn1nc(-c2cccc(Cl)c2)c2ccc(OC)cc2c1=O)c1ccc2nc(C)oc2c1 [Example 7, 2-(4-(3-chlorophenyl)-7-methoxy-1-oxophthalazin-2(1H)-yl)-N-(ethyl-1,1-d2)-N-(2-methylbenzo[d]oxazol-6-yl)acetamide] | < 10 µM |
| CCN(C(=O)Cn1nc(-c2cccc(F)c2)c2ccc(OC)cc2c1=O)c1ccc2nc(C)oc2c1 [Example 8, N-ethyl-2-(4-(3-fluorophenyl)-7-methoxy-1-oxophthalazin-2(1H)-yl)-N-(2-methylbenzo[d]oxazol-6-yl)acetamide] | < 10 µM |
| CCN(C(=O)Cn1nc(-c2cccc(Cl)c2)c2ccc(OC)cc2c1=O)c1ccc2nc(C)oc2c1 [Example 9, 2-(4-(3-chlorophenyl)-7-methoxy-1-oxophthalazin-2(1H)-yl)-N-ethyl-N-(2-methylbenzo[d]oxazol-6-yl)acetamide] | < 10 µM |
| COc1cc2c(=O)n(CC(=O)N(C)c3ccc4nc(C)oc4c3)nc(-c3cccc(F)c3)c2cc1Cl [Example 10, 2-(6-chloro-4-(3-fluorophenyl)-7-methoxy-1-oxophthalazin-2(1H)-yl)-N-methyl-N-(2-methylbenzo[d]oxazol-6-yl)acetamide] | < 10 µM |
| COc1cc2c(=O)n(CC(=O)N(C)c3ccc4nc(C)oc4c3)nc(-c3cccc(Cl)c3)c2cc1Cl [Example 11, 2-(6-chloro-4-(3-chlorophenyl)-7-methoxy-1-oxophthalazin-2(1H)-yl)-N-methyl-N-(2-methylbenzo[d]oxazol-6-yl)acetamide] | < 10 µM |
| COc1ccc2c(-c3cccc(F)c3)nn(CC(=O)N(c3ccc4nc(C)oc4c3)C3CC3)c(=O)c2c1 [Example 12, N-cyclopropyl-2-(4-(3-fluorophenyl)-7-methoxy-1-oxophthalazin-2(1H)-yl)-N-(2-methylbenzo[d]oxazol-6-yl)acetamide] | < 10 µM |
| Cc1nc2ccc(N(C)C(=O)Cn3nc(-c4cccc(F)c4)c4ccc(O)cc4c3=O)cc2o1 [Example 13, 2-(4-(3-fluorophenyl)-7-hydroxy-1-oxophthalazin-2(1H)-yl)-N-methyl-N-(2-methylbenzo[d]oxazol-6-yl)acetamide] | < 10 µM |
| Cc1nc2ccc(N(C(=O)Cn3nc(-c4cccc(F)c4)c4ccc(O)cc4c3=O)C3CC3)cc2o1 [Example 14, N-cyclopropyl-2-(4-(3-fluorophenyl)-7-hydroxy-1-oxophthalazin-2(1H)-yl)-N-(2-methylbenzo[d]oxazol-6-yl)acetamide] | < 10 µM |
| CCOc1ccc2c(-c3cccc(F)c3)nn(CC(=O)N(C)c3ccc4nc(C)oc4c3)c(=O)c2c1 [Example 17, 2-(7-ethoxy-4-(3-fluorophenyl)-1-oxophthalazin-2(1H)-yl)-N-methyl-N-(2-methylbenzo[d]oxazol-6-yl)acetamide] | < 10 µM |
| CCOc1ccc2c(-c3cccc(Cl)c3)nn(CC(=O)N(c3ccc4nc(C)oc4c3)C3CC3)c(=O)c2c1 [Example 18, 2-(4-(3-chlorophenyl)-7-ethoxy-1-oxophthalazin-2(1H)-yl)-N-cyclopropyl-N-(2-methylbenzo[d]oxazol-6-yl)acetamide] | < 10 µM |
| CCOc1ccc2c(-c3cccc(Cl)c3)nn(CC(=O)N(C)c3ccc4nc(C)oc4c3)c(=O)c2c1 [Example 19, 2-(4-(3-chlorophenyl)-7-ethoxy-1-oxophthalazin-2(1H)-yl)-N-methyl-N-(2-methylbenzo[d]oxazol-6-yl)acetamide] | < 10 µM |
| [2H]C([2H])([2H])N(C(=O)Cn1nc(-c2cccc(Cl)c2)c2ccc(OC(C)C)cc2c1=O)c1ccc2nc(C)oc2c1 [Example 20, 2-(4-(3-chlorophenyl)-7-isopropoxy-1-oxophthalazin-2(1H)-yl)-N-(methyl-d3)-N-(2-methylbenzo[d]oxazol-6-yl)acetamide] | < 10 µM |
| CCOc1ccc2c(-c3cccc(F)c3)nn(CC(=O)N(c3ccc4nc(C)oc4c3)C3CC3)c(=O)c2c1 [Example 21, N-cyclopropyl-2-(7-ethoxy-4-(3-fluorophenyl)-1-oxophthalazin-2(1H)-yl)-N-(2-methylbenzo[d]oxazol-6-yl)acetamide] | < 10 µM |
| [2H]C([2H])([2H])N(C(=O)Cn1nc(-c2cccc(F)c2)c2ccc(OCC)cc2c1=O)c1ccc2nc(C)oc2c1 [Example 22, 2-(7-ethoxy-4-(3-fluorophenyl)-1-oxophthalazin-2(1H)-yl)-N-(methyl-d3)-N-(2-methylbenzo[d]oxazol-6-yl)acetamide] | < 10 µM |
| [2H]C([2H])([2H])N(C(=O)Cn1nc(-c2cccc(Cl)c2)c2ccc(OCC3CC3)cc2c1=O)c1ccc2nc(C)oc2c1 [Example 23, 2-(4-(3-chlorophenyl)-7-(cyclopropylmethoxy)-1-oxophthalazin-2(1H)-yl)-N-(methyl-d3)-N-(2-methylbenzo[d]oxazol-6-yl)acetamide] | < 10 µM |
| Cc1nc2ccc(N(C)C(=O)Cn3nc(-c4cccc(Cl)c4)c4ccc(OCC5CC5)cc4c3=O)cc2o1 [Example 24, 2-(4-(3-chlorophenyl)-7-(cyclopropylmethoxy)-1-oxophthalazin-2(1H)-yl)-N-methyl-N-(2-methylbenzo[d]oxazol-6-yl)acetamide] | < 10 µM |
| Cc1nc2ccc(N(C)C(=O)Cn3nc(-c4cccc(Cl)c4)c4ccc(OC(C)C)cc4c3=O)cc2o1 [Example 25, 2-(4-(3-chlorophenyl)-7-isopropoxy-1-oxophthalazin-2(1H)-yl)-N-methyl-N-(2-methylbenzo[d]oxazol-6-yl)acetamide] | < 10 µM |
| Cc1nc2ccc(N(C)C(=O)Cn3nc(-c4cccc(Cl)c4)c4ccc(OC5CCCCC5)cc4c3=O)cc2o1 [Example 26, 2-(4-(3-chlorophenyl)-7-(cyclohexyloxy)-1-oxophthalazin-2(1H)-yl)-N-methyl-N-(2-methylbenzo[d]oxazol-6-yl)acetamide] | < 10 µM |
